According to publication PMC11784115, “Trypsin-instructed bioactive peptide nanodrugs with cascading transformations to improve chemotherapy against colon cancer” (Journal of Nanobiotechnology, 2025):
Like-named read-outs stand apart in the source and are kept apart here. Where a SMILES comes first, the peptide text is derived from it. The star is where a group is joined. Acetyl(2-naphthyl) = O=C(Cc1ccc2ccccc2c1)*

Legend:
[1] = In vitro release from 1-Pept/Dox NFs (HPLC), Ritger-Peppas fitting; assay type: physicochemical
Method: The in vitro drug release profile of 1-Pept/Dox NFs was conducted in a constant temperature vibrator (40 rpm, 37 °C). 1-Pept/Dox NFs (200 µL, 1.0 wt%/0.1 eq) were prepared and incubated with 200 µL PBS buffer (pH = 7.4, 6.5 and 5.5). At particular time points, 200 µL liquid supernatant was sucked out and further analyzed by HPLC. Simultaneously, 200 µL fresh PBS was added to maintain a fixed volume. Free Dox solutions were used as controls.

[2] = tested on: HT29-xenografted tumor; experiment: In vivo antitumor efficacy, HT29 xenograft; parameters: species or system BALB/C nude mice; conditions: for percentage of Ki67-positive signals in tumor tissues: tumor tissue, day 21
Method: HT29 tumor-bearing mice model was developed to study the antitumor effect in vivo of 1-Pept/Dox NFs. HT29 cell suspension (100 µL, 5.0 × 10^6 cells) was mixed with an equal volume of Matrigel. Then, the mixtures were subcutaneously injected into the right back of male BALB/C nude mice (6–8 weeks, Jinan Pengyue Experimental Animal Breeding Co., Itd, China). […] (1) PBS; (2) 1-Pept NFs; […] The dosage was fixed as 13 µmol/kg for Dox moiety and 130 µmol/kg for 1-Pept. The tumor size and body weight of the mice were determined every three days. The tumor size was obtained using the equation V = L×W^2/2, where L and W denote the length and width, respectively. At the end of the day 21st, the tumor tissues were collected for HE staining to observe morphological changes in tumor cells. The actin and tubulin staining of the cell sections was also conducted to study the cytoskeleton changes after drug treatment. The Ki-67 staining was conducted to observe the proliferative status of tumor cells. Meanwhile, the signals of TUNEL and expressions of activated caspase-3 were also measured by immunohistochemical staining.

[3] = tested on: HT29 cells; assay type: cell-based, human
Method: HT29 cells were incubated in a 96-well microplate and cultured with 1-Pept/Dox NFs for 48 h. The concentrations of Dox were between 12.5 and 0.391 µM, and 1-Pept were between 125 and 3.91 µM. Then, a fixed volume of 20 µL MTT (5 mg/mL) was added to the wells for co-incubation. After 4 h, the generated formazan could be found. After dissolving in DMSO, the absorbance values were recorded at 490 nm utilizing a microplate reader (Multiskan FC). By comparing the absorbance of the samples and the controls, the cell’s survival rates were calculated. The IC50 values were obtained by Origin 8.0 software. Simultaneously, the MTT assays for NCM460, SW620, SW480, and HCT-15 were performed using the aforementioned procedures.

[4] = tested on: rabbit red blood cells
Method: To begin with, the biocompatibility of 1-Pept/Dox NFs was explored from hematological compatibility and histocompatibility. The hemolysis ratio of 1-Pept/Dox NFs was evaluated based on rabbit red blood cells (RBCs). […] Then, the samples were first centrifuged to obtain the supernatant and measured the absorbance at 540 nm. Deionized water served as a positive group and 0.9% of the NaCl solution was utilized as a negative group. The hemolysis ratio of samples was obtained according to the hemolysis rate equation.

[5] = Minimum gelation concentration (MGC) by vial inversion; assay type: physicochemical; conditions: PBS, neutral pH, Tps 5 U/mL or Dox 0.1 eq where present
Method: The enzyme-directed assembly behavior of 1-Pept was subsequently investigated. 1-Pept was dissolved in PBS solution, and the pH was adjusted to neutral condition. The formation of 1-Pept nanofibrillar hydrogels was monitored via a vial inversion method. 1-Pept/Tps NFs were obtained after mixing Tps (5 U/mL) with 1-Pept solution. The MGC of 1-Pept NFs and 1-Pept/Tps NFs could be determined when the samples could not flow.
1-Pept (1.0 wt%) was dissolved in PBS solution and mixed with 0.1 equivalents of Dox to obtain 1-Pept/Dox NFs (1.0 wt%/0.1 eq), and the solutions were kept at 25 °C to obtain 1-Pept/Dox NFs. The MGC, CAC, microscopic morphology, CD analysis, and viscoelasticity were tested according to the above procedures. The intermolecular force between 1-Pept and Dox was examined with fluorescent spectroscopy. Simply, Dox solution (20 µg/mL) was incubated with different concentrations (125, 62.5, 31.3, 15.6, 7.81, and 3.90 µg/mL) of 1-Pept solutions, and the fluorescent spectrum of the sample was recorded at a fixed excitation wavelength of […]. Ulteriorly, the electrostatic interactions between 1-Pept and Dox were explored by adding sodium chloride solution (2 M).

[6] = tested on: trypsin (Tps); experiment: in vitro; conditions: isolated enzyme
Method: 1-Pept (1 mg/mL) was dissolved in PBS solution, and the pH was modulated to a neutral condition. After that, Tps (1 U/mL) was added to the solution to trigger the conversion of 1-Pept (NapFFGYKCD) into Pept (NapFFGYK). At fixed time points, 50 µL 1-Pept solution was taken out and mixed with 150 µL methanol to obtain the mixed solution. Finally, the mixed solution was analyzed with HPLC-MS to investigate the conversion rate.

[7] = free Dox solution, 12-h release

Which results are given for `COc1cccc2c1C(=O)c1c(O)c3c(c(O)c1C2=O)C[C@@](O)(C(=O)CO)C[C@@H]3O[C@H]1C[C@H](N)[C@H](O)[C@H](C)O1` [Dox, Doxorubicin]?
cumulative release of Dox at 12 h ([1]; free Dox solution control, PBS, 37 °C, 40 rpm, HPLC): 51%; Ritger-Peppas exponential factor n, Dox release [1, 7]: 0.35; Ritger-Peppas k, Dox release [1, 7]: 0.21; tumor volume growth rate on the 21st day ([2]; peritumoral s.c. injection days 1, 4, 7, 10, 13 µmol/kg Dox, 130 µmol/kg 1-Pept): 3.3; percentage of Ki67-positive signals in tumor tissues [2]: 45%; IC50 ([3]; HT29, 48 h, MTT, read-out: IC50 value of Dox): 2.8 µM; hemolysis rate [4]: 2.8%

What does the source list for `NCCCC[C@H](NC(=O)[C@H](Cc1ccc(O)cc1)NC(=O)CNC(=O)[C@H](Cc1ccccc1)NC(=O)[C@H](Cc1ccccc1)NC(=O)Cc1ccc2ccccc2c1)C(=O)N[C@@H](CS)C(=O)N[C@@H](CC(=O)O)C(=O)O` [1-Pept, 2-Naphthylacetic acid-Phe-Phe-Gly-Tyr-Lys-Cys-Asp] ({Acetyl(2-naphthyl)}-FFGYKCD-OH)?
minimum gelation concentration (MGC) [5]: 0.8 wt%; percentage of Ki67-positive signals in tumor tissues [2]: 60%; IC50 ([3]; 48 h): 134 µM; metabolised at 72 h, 1 mg/mL [6]: > 90%; hemolysis rate ([4]; red cells of rabbit, 1 h, 1.0 wt%): 1.1%
